For orientation: inhibition means the relative decrease from the control value, in per cent.

The text below walks through data of patent US6319910A, “Method for inhibiting cyclooxygenase-2 and tumor necrosis factor alpha” (Hospital for Joint Diseases, priority 1998, dated 2001).

Molecules are shown by their SMILES. Entries after “also recorded” stand apart in the source; their conditions may differ. Read-outs that look alike come from different tables or passages of the source.

For assay [1], the system named is RAW 264.7 cells. The experiment in a line: PGE2 production/accumulation in LPS-stimulated RAW 264.7 cells. In kind it is cell-based, murine. As to the method:
(§1) Murine macrophages (RAW 263.7 cells) which were grown in Dulbecco's modified eagle medium (DMEM) containing 10% fetal bovine serum, 2 mM glutamine, 50 U/ml penicillin and 50 μg/ml streptomycin, were stimulated with 100 ng/ml LPS to induce both NOS and COX-2 at 16 hr. […] The data presented in FIG. 1 represents mean±SD as examined by T test were n=3.
(§2) The effects of CMTs 1, 2, 3, 5 and 8 on PGE2 and NO accumulation in RAW 264.7 cells were further evaluated as described above for CMT-3. […]

In assay [2] the target is T1, COX-2 (Mus musculus, UniProt Q05769).
T1 construct: using total unfractionated cell extracts; endogenous in cells; host or cells: RAW 264.7 cells, LPS-induced; cell-free extract
T1 sequence (Q05769 18-604): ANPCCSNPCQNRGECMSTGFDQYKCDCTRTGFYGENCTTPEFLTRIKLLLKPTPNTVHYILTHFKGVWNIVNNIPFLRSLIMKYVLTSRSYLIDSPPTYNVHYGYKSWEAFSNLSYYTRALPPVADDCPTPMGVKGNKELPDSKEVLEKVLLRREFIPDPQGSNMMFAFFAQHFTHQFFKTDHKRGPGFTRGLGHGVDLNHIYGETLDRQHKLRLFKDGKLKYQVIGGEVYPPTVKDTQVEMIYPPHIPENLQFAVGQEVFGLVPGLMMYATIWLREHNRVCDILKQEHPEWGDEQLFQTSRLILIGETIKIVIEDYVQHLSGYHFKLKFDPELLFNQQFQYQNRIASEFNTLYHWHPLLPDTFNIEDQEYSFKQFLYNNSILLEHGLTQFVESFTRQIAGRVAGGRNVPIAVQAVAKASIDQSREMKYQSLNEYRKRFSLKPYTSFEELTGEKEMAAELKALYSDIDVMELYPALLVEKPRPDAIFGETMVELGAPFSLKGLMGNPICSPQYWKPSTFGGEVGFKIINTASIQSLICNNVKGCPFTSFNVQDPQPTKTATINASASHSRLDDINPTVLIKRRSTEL
The experiment in a line: COX-2 specific activity in cell-free extracts of LPS-stimulated RAW 264.7 cells (PGE2 by RIA). In kind it is biochemical, murine. As to the method: Raw 264.7 cells were stimulated with LPS and cell-free extracts were prepared as follows. RAW 264.7 cells were induced with LPS (100 ng/ml) in the presence or absence of tetracyclines or hydrocortisone for 14-20 hours. Following induction, the cells were pelleted at 4° C. and resuspended in Tris buffer: 10 mM, pH 7.4 containing 10 μg/ml each of chymostatin, antipain, leupeptin and pepstatin, 1 mM DDT and 1 mM PMSF. Cells were lysed in a Polytron PA 1200 homogenizer (Kinematica AG, Switzerland) with the cocktail of protease inhibitors after 3 cycles of rapid freeze-thawing. The lysate was centrifuged at 18,000 at 4° C. in an eppendorf centrifuge, and the resulting supernatant was used as cell-free extracts. The protein was measured by BCA assay reagent (Pierce, Rockford, Ill.) using BSA as standard. […] The specific enzyme activity was defined as ng of PGE2 released/mg protein/37° C. for 20 minutes.
RAW 264.7 cells were stimulated with 1 μg/ml of LPS for 16 hours and cell-free extracts were prepared as described above. The extracts were incubated with different modulators for 20 minutes at 37° C. before adding the substrate to initiate the enzyme reaction, which was terminated after 30 minutes by heat inactivation. The data represent one of the two experiments, the PGE2 analysis from each sample was done in triplicates n=3. The p value is a comparison between control and experimentals.

Assay [3] concerns bovine chondrocytes. The experiment in a line: PGE2 production in LPS stimulated bovine chondrocytes (radioimmunoassay). It is filed as cell-based. The settings on record: FIGS. 3 and 9, words; for Effect on PGE2 production: LPS 100 μg/ml, 72 hrs. Here is the method:
After 48 hours the medium was changed and the cells were incubated with CMT-3 or N-monomethyl arginine (NMMA) for 2 hours before stimulating them with 100 μg/ml LPS. DMSO was used as a carrier for the modulators and the DMSO concentration was maintained (<0.01% v/v) in the cultures. Equivalent amounts of DMSO was also added to the control cultures. The levels of COX-2 dependent PGE2 release was assayed after 72 hrs by radioimmunoassay. […] The data represents mean±SD which was evaluated by T test where n=3.

The subject of assay [4] is RAW 264.7 cells. The experiment in a line: Nitrite (NO) production/accumulation in LPS-stimulated RAW 264.7 cells. In kind it is cell-based, murine. The settings on record: LPS 100 ng/ml, 16 hours. Here is the method:
as §1, §2

In assay [5] the test system is OA-affected cartilage. The experiment in a line: Spontaneous PGE2 release by OA-affected cartilage (ex vivo organ culture). It is filed as cell-based, human. The settings on record: for Effect on PGE2 production: human OA-affected cartilage, words. As to the method: (§3) Human osteoarthritis affected cartilage spontaneously release nitric oxide (NO) and PGE2 in the medium as previously reported (Amin et al, 1995a; 1997a). The OA-organ cultures were set up as described (Amin et al, 1995a; 1997a). Briefly, total knee articular cartilage from tibial plateau and femoral condyle were harvested from OA-affected patients. The cartilage was mixed and cut into 3-mm discs and 4-6 discs were placed in triplicate or quadruplicate, in a 24-well plate in 2.0 ml of Ham's F-12 medium supplemented with 0.2% endotoxin free human albumin, 10 mM Hepes pH 7.4 and antibiotics in the presence of various modulators, as previously described (Amin et al, 1995a; 1997a). CMT-8 was used at pharmacologically relevant concentrations in DMSO (<0.01% final concentration) as carrier. An equivalent amount of DMSO was also added in the control cultures.
(§4) The p value between control and CMT-8 treated values for PGE2≤0.1 (insignificant) whereas the p values between NMMA treated cartilage and CMT-8 treated cartilage was ≤0.001 (significant). The data are represented as mean±SD as examined by T test when n=3. Data represent±SD value as determined by Student's t test n=4. The P values described are compared with control unstimulated OA-cartilage. The data represents one of the two similar experiments. P values for PGE2 and Nitrite=^a≤0.5; ^b≤0.1; ^c≤0.05; ^d≤0.01.

For assay [6], the system named is bovine chondrocytes. The experiment in a line: Nitrite (NO) production in LPS stimulated bovine chondrocytes. It is filed as cell-based. The settings on record: FIGS. 3 and 9; LPS 100 μg/ml; words.
Assay [7] has as its system COX-2. The experiment in a line: COX-2 expression in cells/cartilage (general statement). It is filed as cell-based. The settings on record: words.
Assay [8] has as its system OA-affected cartilage. The experiment in a line: Spontaneous nitrite/nitric oxide release by OA-affected cartilage (ex vivo organ culture). It is filed as cell-based, human. The settings on record: for Effect on NO production: human OA-affected cartilage, words. Here is the method:
as §3, §4

For assay [9] the following is noted: words; cited from earlier work.
The next assay relates to iNOS mRNA. The settings on record: Amin et al, 1997b; words; cited from earlier work.
In the next assay the test system is TNFα. The experiment in a line: TNFα release in the medium by HEK 293 cells permanently transfected with human proTNFα (ELISA). In kind it is cell-based. The settings on record: words; for Effect on spontaneous TNFα release: FIG. 8, 16 hours. As to the method: HEK 293 cells were transfected with the proTNFα cDNA (wild) to prepare a stable cell line. […] A mutant form of proTNFα cDNA which could not be cleaved by the endogenous TNFα convertase (TACE) to release soluble TNFα was also transfected in separate human HEK 293 cells. The soluble TNFα was estimated by ELISA from the wild type and mutant transfected cells from the medium (FIG. 6).
HEK 293 cells were grown as previously described by American Type Culture Collection (ATCC). […] The HEK 293 cells were incubated with CMT-3 to examine the effects of CMT-3 on TNFα release in the medium.
HEK 293 cells were grown under the conditions previously described by ATCC. Various compounds, including CMT-3 and doxycycline/minocyclines were incubated with proTNFα transfected HEK 293 cells releasing TNFα in the medium at 16 hours. […] Soluble TNFα was estimated by ELISA from the medium.

Another assay has as its system OA. The settings on record: prophylactic administration; Yu et al (1992); words; cited from earlier work.
The next assay concerns NOS. The settings on record: background; words; cited from earlier work.
The test system of assay [10] is OA-affected cartilage. The settings on record: Amin et al, 1997a; words; cited from earlier work.
Assay [11] relates to OA-affected cartilage. The settings on record: Amin et al, 1997a; words; cited from earlier work. The source holds these as a separate data set.

As for `C[C@H]1c2cccc(O)c2C(O)=C2C(=O)[C@]3(O)C(O)=C(C(N)=O)C(=O)C[C@@H]3[C@@H](O)[C@@H]21` [CMT-8, 6-α-deoxy-5-hydroxy-4-dedimethylaminotetracycline], the PGE2 accumulation with RAW 264.7 cells [1] (16 h, 10 ug/mL) was found to be 27.2 ± 3.4 ng/mL; in the assay with RAW 264.7 cells [1] (Experiment II, LPS 100 ng/ml, compound 10 μg/ml, 16 hours), 24.3 ± 4.5 ng/mL. Besides, the “Effect on specific activity of COX-2” value at COX-2 [2] (CMT-3 27 μM, CMT-8 27 μM, aspirin 56 μM, indomethacin 28 μM, words) is listed as “significantly inhibited the specific activity of COX-2”. Further, the “COX-2 Specific Activity” value at COX-2 [2] (Table 3, cell-free extracts, 10 μg (aspirin amount not given)) is 4.3 ± 0.1 PGE2 ng/mg protein. Besides, the “Effect on PGE2 production” value with bovine chondrocytes [3] was “inhibit NO and PGE2 production”; with OA-affected cartilage [5], “inhibits PGE2 in a dose dependent manner; also recorded: significantly inhibit; also recorded: inhibited both NO and PGE2 production; also recorded: inhibits COX-2 expression and PGE2 production”. Further, in the assay on bovine chondrocytes [3], the “Effect on L-NMMA induced PGE2 up-regulation” value is given as “inhibits the L-NMMA induced PGE2 up-regulation”. Also, the Nitrite amounted to 36.0 µM in the assay on RAW 264.7 cells [4] (Experiment I, compound 10 μg/ml) and 47.0 ± 22.0 µM in the assay on OA-affected cartilage [8] (Table 2, 5 μg/ml). This compound also came in with an inhibition at 10 µg/mL in the assay on RAW 264.7 cells [4] (Mus musculus, RAW264.7, 16 h, Experiment I, compound 10 μg/ml) of 28%. In addition, the inhibition at 5 µg/mL in the assay on OA-affected cartilage [5] (Homo sapiens, Table 2, 5 μg/ml) turned out to be 58%; in the assay on OA-affected cartilage [8] (Homo sapiens, Table 2, 5 μg/ml), 40%. In the assay on OA-affected cartilage [5] (Table 2, 5 μg/ml), this compound displayed a PGE2 of 94.7 ± 39.2 ng/mL. The “Effect on NO production” value in the assay on bovine chondrocytes [6] was “inhibit NO and PGE2 production”; in the assay with OA-affected cartilage [8], “inhibits NOS and NO production; also recorded: significantly inhibit; also recorded: inhibited both NO and PGE2 production; also recorded: inhibiting NO production”. The “Effect on COX-2 expression” value in the assay on COX-2 [7] was “inhibits COX-2 expression and PGE2 production”. Further, in assay [9], the Antimicrobial activity entry is “no antimicrobial activity”. Further, the “Effect on iNOS mRNA expression” value with iNOS mRNA is “inhibiting iNOS mRNA expression”. Further, in the assay with TNFα, the “Effect on spontaneous TNFα release” value is reported as “inhibit the spontaneous TNFα release”. Further, the “Inhibition of TNFα (summary statement)” value in the assay on TNFα (HEK 293 cells transfected with proTNFα cDNA, low levels) is “inhibiting TNFα”.
For the compound `C[C@H]1c2cccc(O)c2C(O)=C2C(=O)[C@]3(O)C(O)=C(C(N)=O)C(=O)[C@@H](N(C)C)[C@@H]3[C@@H](O)[C@@H]21` [Doxycycline, doxycycline, reference compound], the “Effect on PGE2 production” value in the assay on OA-affected cartilage [5] is “up-regulate COX-2 expression and PGE2 production”. Further, the “Effect on COX-2 expression” value in the assay on COX-2 [7] was “up-regulate COX-2 expression and PGE2 production”. The “Effect on NO production” value in the assay on OA-affected cartilage [8] is listed as “inhibit NO production”. In the assay on OA, the “Severity of OA” value was “markedly reduced the severity of OA”. For the same compound, the “Effect on spontaneous TNFα release” value with TNFα was “inhibit TNFα release”.
As for `CN=C(N)NCCC[C@H](N)C(=O)O` [L-NMMA, N^G -monomethyl-L-arginine acetate, reference compound], the “Effect on PGE2 production” value was “augments PGE2 production” in the assay with RAW 264.7 cells [1] (FIG. 1, LPS 100 ng/ml, 16 hours, words); “augments PGE2 production” in the assay on bovine chondrocytes [3]; “augmenting PGE2 production” in the assay with NOS; “augments PGE2 production” in the assay with OA-affected cartilage [11]. The “Effect on NO production” value was “blocks NO production” in the assay with RAW 264.7 cells [4] (FIG. 1, words) and “inhibits NO production” with bovine chondrocytes [6]. In addition, in the assay with NOS, the “Effect on production of NO” value is “inhibit the production of NO”. Further, the “Effect on NOS and NO production” value with OA-affected cartilage [10] was “inhibits NOS and NO production”.
